In patent publication US7759101B2, “Ginsenoside glycosidases hydrolyzing ginsenoside sugar moieties and uses thereof” (priority 2000, dated 2010):

Experiments:
[1] = test system: ginsenoside glycosidases from A. niger; assay: Hydrolysis of ginsenosides with crude ginsenoside glycosidases from A. niger, products measured by TLC; format: biochemical, Aspergillus niger
Protocol: Aspergillus niger FFCCDL-48 g was cultured in a medium containing 1% ginseng extracts and 3% wheat bran extracts at 30° C. for 54 hours. Cells were removed by centrifugation, after which (NH4)2SO4 powder was added to 2000 ml of the cell-free supernatant with stirring to 65% saturation. The solution was stored overnight at 4° C. and precipitated proteins were collected by centrifugation, resuspended in 80 ml of distilled water and dialyzed against 0.01M acetate buffer pH 5. Insolubles were removed by centrifugation, and the solution was adjusted to 200 ml with 0.01 M acetate buffer pH 5. The crude enzyme solution may be used to hydrolyze ginsenosides or to purify the enzymes.
100 mg each of ginsenosides Rb1, Rb2, Rc and Rd and 10 mg of ginsenoside Rg3 were dissolved in separate tubes containing 10 ml of 0.01M acetate buffer pH 5. 10 ml of the crude enzyme solution obtained in 1.1 was added to each tube and allowed to react at 30° C. for 18 hours. Then 10 ml of n-butanol was added to stop the reactions. The products were measured by thin layer chromatography (TLC) (Silica gel 60-F254, Merck; chloroform:methanol:water 70:30:5).
Experiments were carried out to explore the effects of temperature, pH, metal ions and reaction time on the enzyme reaction, in order to further characterize the enzymes.
100 mg of ginsenoside Rb1 was used in a reaction under the conditions as described in 1.2 and the effect of temperature was shown in Table 2.

[2] = test system: ginsenoside glycosidase I; assay: Hydrolysis of ginsenosides with Fraction 36 (ginsenoside glycosidase I); format: biochemical, Aspergillus niger; details: Fraction 36; substrates Rb1, Rb2, Rc, Rd 0.5%; Rg3, F2, Rh2, C—K, Rg2 0.05%; pH 5.0, 30° C.
Protocol: 10 ml of the enzyme solution obtained in 1.1 was subjected to a DEAE-Cellulose DE-52 column (Pharamcia, 1.5×6.7 cm) to absorb the enzyme protein. The column was then eluted with a NaCl gradient (0.06, 0.12, 0.18, 0.24, 0.3, 0.4, 0.5 and 0.6M).
Fractions 36 and 54 from the DEAE-Cellulose column appeared as one dot on a SDS-polyacrylamide gel, representing the purified enzymes.
Fraction 36 which was eluted with 0.12 M NaCl from the DEAE-Cellulose column was lyophilized and appeared as a single dot with a molecular weight of 51,000 Daltons when running on a SDS-polyacrylamide gel.
To observe the differences between the ginsenoside glycosidases of the invention and known exo-cellulases, the ginsenoside glycosidases of the invention were compared with cellulose β-glucosidase (E.C. 3.2.1.21) in two reactions with 0.5% ginsenosides Rb1 or Rd as substrate.

[3] = test system: ginsenoside glycosidases from A. oryzae; assay: Hydrolysis of ginsenosides with crude ginsenoside glycosidases from A. oryzae, TLC; format: biochemical, Aspergillus oryzae; details: pH 5.0, 30° C., 18 hours
Protocol: Aspergillus oryzae FFCCDL-39 g (available from Food Fermentation Culture Collection of Dalian Institute of Light Industry) was cultured with stirring in a medium containing 1% ginseng extracts and 3% wheat bran extracts at 30° C. for 64 hours. Cells were removed by centrifugation, after which (NH4)2SO4 powder was added to 2000 ml of the cell-free supernatant with stirring to 65% saturation. The solution was stored overnight at 4° C. and precipitated proteins were collected by centrifugation, resuspended in 80 ml of distilled water and dialyzed against 0.01M acetate buffer pH 5. Insolubles were removed by centrifugation, and the solution was adjusted to 200 ml with 0.01 M acetate buffer pH 5. The crude enzyme solution may be used to hydrolyze ginsenosides or to purify the enzymes.
Each 100 mg of ginsenosides Rb1, Rb2, Rc Re and Rd and each 10 mg of ginsenoside Rg3 and Rg2 were dissolved in separate tubes containing 10 ml of 0.01M acetate buffer pH 5. 10 ml of the crude enzyme solution obtained as above was added to each tube and allowed to react at 30° C. for 18 hours. Then 10 ml of n-butanol was added to stop the reactions. The products were measured by thin layer chromatography (TLC) (Silica gel 60-F254, Merck; chloroform:methanol:water 70:30:5). […]

[4] = test system: ginsenoside glycosidase I from ginseng plants; assay: Hydrolysis of ginsenosides with fraction 52 (ginsenoside glycosidase I) from ginseng plant; format: biochemical; details: Fraction 52; substrate 0.5%; 50° C., pH 5.0, 18 hours
Protocol: 200 g of fresh ginseng root was cut into pieces and added to 600 ml of 0.02 M acetate buffer pH 5. Supernatant was obtained by filtration after the mixture stand at 40° C. for 2 hours. To the supernatant (NH4)2SO4 was added gradually until 70% saturation and the mixture stand overnight at 4° C. Then protein pellets were collected by centrifugation and redissolved in 15 ml of distilled water. The solution was dialyzed against 0.02 M Tris-HCl pH 7.4. Insolubles were removed by centrifugation and the volume of the supernatant was adjusted to 20 ml.
5 ml of the enzyme solution was subjected to a DEAE-Cellulose DE-25 column (Whatman, 1.4×6.7 cm). The column was eluted with a KCl gradient (0.06, 0.12, 0.18 and 0.24 M) in 0.02 M Tris-HCl pH 7.4. After elution, each fraction was tested for the activity of hydrolyzing ginsenosides. […] Fraction 52 can also hydrolyze the glucosidic bond at the twentieth carbon atom of Rb and Rc to give ginsenoside F2.

[5] = test system: ginsenoside glycosidases from wheat bran; assay: Hydrolysis of ginsenosides with ginsenoside glycosidases from wheat bran; format: biochemical; details: 10 ml of 1% ginsenoside substrate, 40° C., 20 hours
Protocol: 500 g of wheat bran was added to 2500 ml of 0.02 M acetate buffer pH 5 and extracted at 40° C. for 2 hours. 2000 ml of supernatant were obtained by filtration to which (NH4)2SO4 was added gradually with stirring until 70% saturation. The mixture stand at 4° C. overnight. Protein pellets were collected by centrifugation and redissolved in 80 ml of distilled water and dialyzed against 0.02 M acetate buffer pH 5.0. Insolubles were removed by centrifugation and the supernatant was adjusted to a volume of 200 ml to obtain the crude enzyme solution.
10 ml of the enzyme solution was allowed to react with 10 ml of 1% ginsenoside substrate at 40° C. for 20 hours.

Compound	Percentage of aglycone in the reaction product [3] [%]	Percentage of C—K in the reaction product ([1]; pH 5, 30° C., 18 hours) [%]	Percentage of F2 in the reaction product ([1]; pH 5, 30° C., 18 hours) [%]	Percentage of Rd in the reaction product ([1]; pH 5, 30° C., 18 hours) [%]	Percentage of Rh2 in the reaction product ([1]; pH 5, 30° C., 18 hours) [%]	Percentage of aglycone in the reaction product ([1]; pH 5, 30° C., 18 hours) [%]	Percentage of C—K in the reaction product [2] [%]	Percentage of F2 in the reaction product [2] [%]	Percentage of Rd in the reaction product [2] [%]	Percentage of Rh2 in the reaction product [2] [%]	Percentage of aglycone in the reaction product [2] [%]	Percentage of C—K in the reaction product [3] [%]	Percentage of F2 in the reaction product [3] [%]	Percentage of Rd in the reaction product [3] [%]	Percentage of F2 in the reaction product [4] [%]	Percentage of Rd in the reaction product [4] [%]	Percentage of F2 in the reaction product [5] [%]	Percentage of Rd in the reaction product [5] [%]	other results
[Pb+2] [Pb^++]																			effect of metal ions on the enzyme reaction ([1]; hydrolysis of Rb1, pH 5.0, 30°C.): inhibit the reaction
CC(C)=CCC[C@](C)(O)[C@H]1CC[C@]2(C)[C@@H]1[C@H](O)C[C@@H]1[C@@]3(C)CC[C@H](O)C(C)(C)[C@@H]3[C@@H](O[C@@H]3O[C@H](CO)[C@@H](O)[C@H](O)[C@H]3O[C@@H]3O[C@@H](C)[C@H](O)[C@@H](O)[C@H]3O)C[C@]12C [Rg2, ginsenoside Rg2]	3																		Percentage of Rg2 in the reaction product [2]: 100%; Percentage of Rg2 in the reaction product [3]: 32%; Percentage of Rh1 in the reaction product [3]: 75%
CC(C)=CCC[C@](C)(O[C@@H]1O[C@H](CO[C@@H]2OC[C@H](O)[C@H](O)[C@H]2O)[C@@H](O)[C@H](O)[C@H]1O)[C@H]1CC[C@]2(C)[C@@H]1[C@H](O)C[C@@H]1[C@@]3(C)CC[C@H](O[C@@H]4O[C@H](CO)[C@@H](O)[C@H](O)[C@H]4O[C@@H]4O[C@H](CO)[C@@H](O)[C@H](O)[C@H]4O)C(C)(C)[C@@H]3CC[C@]12C [Rb2, ginsenoside Rb2]	3	17	57	13	3	3	54	35	9	1	1	54	35	18	65	35	50	45	Percentage of Rb2 in the reaction product ([1]; pH 5, 30° C., 18 hours): 7%
CC(C)=CCC[C@](C)(O[C@@H]1O[C@H](CO[C@@H]2O[C@@H](CO)[C@H](O)[C@H]2O)[C@@H](O)[C@H](O)[C@H]1O)[C@H]1CC[C@]2(C)[C@@H]1[C@H](O)C[C@@H]1[C@@]3(C)CC[C@H](O[C@@H]4O[C@H](CO)[C@@H](O)[C@H](O)[C@H]4O[C@@H]4O[C@H](CO)[C@@H](O)[C@H](O)[C@H]4O)C(C)(C)[C@@H]3CC[C@]12C [Rc, ginsenoside Rc]	5	15	58	12	2	5	52	36	8	2	2	56	30	19	55	45	55	43	Percentage of Rc in the reaction product ([1]; pH 5, 30° C., 18 hours): 8%
CC(C)=CCC[C@](C)(O)[C@H]1CC[C@]2(C)[C@@H]1[C@H](O)C[C@@H]1[C@@]3(C)CC[C@H](O[C@@H]4O[C@H](CO)[C@@H](O)[C@H](O)[C@H]4O)C(C)(C)[C@@H]3CC[C@]12C [Rh2, ginsenoside Rh2]										89	10								
CC(C)=CCC[C@](C)(O[C@@H]1O[C@H](CO)[C@@H](O)[C@H](O)[C@H]1O)[C@H]1CC[C@]2(C)[C@@H]1[C@H](O)C[C@@H]1[C@@]3(C)CC[C@H](O)C(C)(C)[C@@H]3CC[C@]12C [C—K, ginsenoside C-K]							97				3								
